Reference: patent US20240228463A1, “SODIUM CHANNEL INHIBITORS AND METHODS OF DESIGNING SAME” (Genentech, Inc., priority 2021, published 2024)

Target: T1, hNaV1.7 (Homo sapiens, UniProt Q15858)
T1 construct: expressed in transfected cells
Experiment: Patch voltage clamp electrophysiology (EP), Syncropatch 384PE, Nav1.7 in CHO cells;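 further: Nav1.7 stably expressed from cDNA in CHO cells, holding potential of −50 mV kept for the entire experiment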
Assay type: cell-based
Conditions: holding potential −50 mV, inhibition based on 7.5 min compound incubation, read-out: hNaV1.7 EP_SP

T1 sequence (Q15858 1-1977 isoform Q15858-3): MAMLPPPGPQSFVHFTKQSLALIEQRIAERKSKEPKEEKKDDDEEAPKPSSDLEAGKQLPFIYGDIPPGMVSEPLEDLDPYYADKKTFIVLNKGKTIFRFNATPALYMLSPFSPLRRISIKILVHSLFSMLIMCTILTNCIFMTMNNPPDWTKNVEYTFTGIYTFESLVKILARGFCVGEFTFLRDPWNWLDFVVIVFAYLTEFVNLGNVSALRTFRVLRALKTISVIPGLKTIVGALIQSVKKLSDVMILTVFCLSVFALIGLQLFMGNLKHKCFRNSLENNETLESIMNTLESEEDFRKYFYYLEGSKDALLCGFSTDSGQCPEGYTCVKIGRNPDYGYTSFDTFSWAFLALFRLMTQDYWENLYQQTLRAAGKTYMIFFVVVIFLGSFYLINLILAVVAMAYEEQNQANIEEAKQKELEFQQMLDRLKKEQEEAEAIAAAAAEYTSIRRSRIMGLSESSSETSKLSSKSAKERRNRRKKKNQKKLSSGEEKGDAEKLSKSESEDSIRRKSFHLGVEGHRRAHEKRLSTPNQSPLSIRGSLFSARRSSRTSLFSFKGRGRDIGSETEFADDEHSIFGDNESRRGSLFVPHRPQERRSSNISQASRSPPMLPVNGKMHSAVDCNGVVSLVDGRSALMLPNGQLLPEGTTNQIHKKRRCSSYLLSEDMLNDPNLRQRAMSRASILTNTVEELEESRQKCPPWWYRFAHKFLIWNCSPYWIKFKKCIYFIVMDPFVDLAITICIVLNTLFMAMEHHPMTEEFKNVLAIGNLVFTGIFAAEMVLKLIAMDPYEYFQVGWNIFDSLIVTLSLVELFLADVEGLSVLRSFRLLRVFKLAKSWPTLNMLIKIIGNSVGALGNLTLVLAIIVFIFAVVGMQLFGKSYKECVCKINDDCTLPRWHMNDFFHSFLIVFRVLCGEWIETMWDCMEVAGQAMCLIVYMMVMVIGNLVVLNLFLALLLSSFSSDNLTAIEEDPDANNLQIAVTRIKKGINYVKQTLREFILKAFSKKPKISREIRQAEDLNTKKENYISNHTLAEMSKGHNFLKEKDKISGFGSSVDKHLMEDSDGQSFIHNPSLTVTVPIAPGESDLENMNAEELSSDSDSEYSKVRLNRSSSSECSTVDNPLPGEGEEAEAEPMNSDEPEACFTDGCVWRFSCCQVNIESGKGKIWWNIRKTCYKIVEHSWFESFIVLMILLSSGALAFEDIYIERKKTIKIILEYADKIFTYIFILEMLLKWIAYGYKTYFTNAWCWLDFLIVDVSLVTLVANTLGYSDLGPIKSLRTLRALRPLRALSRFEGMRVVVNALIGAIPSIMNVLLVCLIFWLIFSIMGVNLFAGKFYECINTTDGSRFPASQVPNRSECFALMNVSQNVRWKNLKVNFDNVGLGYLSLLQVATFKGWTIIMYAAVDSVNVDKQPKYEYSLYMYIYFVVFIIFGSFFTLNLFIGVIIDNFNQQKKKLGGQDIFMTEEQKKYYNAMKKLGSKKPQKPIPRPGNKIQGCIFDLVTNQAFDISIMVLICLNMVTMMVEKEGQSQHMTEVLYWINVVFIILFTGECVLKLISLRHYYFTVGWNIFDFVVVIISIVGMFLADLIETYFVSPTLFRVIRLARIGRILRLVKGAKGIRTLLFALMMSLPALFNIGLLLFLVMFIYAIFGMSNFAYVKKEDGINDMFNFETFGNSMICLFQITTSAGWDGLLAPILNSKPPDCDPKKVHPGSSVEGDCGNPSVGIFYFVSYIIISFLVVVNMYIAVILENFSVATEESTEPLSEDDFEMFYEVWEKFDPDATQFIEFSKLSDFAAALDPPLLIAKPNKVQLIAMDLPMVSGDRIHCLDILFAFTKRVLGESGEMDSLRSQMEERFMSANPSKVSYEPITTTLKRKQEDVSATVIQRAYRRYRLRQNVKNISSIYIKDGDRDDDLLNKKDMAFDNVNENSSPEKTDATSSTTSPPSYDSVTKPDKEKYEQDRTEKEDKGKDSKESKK

| IC50 | SMILES |
| --- | --- |
| 730 nM | CN(C)[C@H]1CCCC[C@@H]1Oc1ccc(S(=O)(=O)Nc2ccc(SCc3ccccc3Cl)cn2)c(F)c1 [Example 257, N-(5-((2-chlorobenzyl)thio)pyridin-2-yl)-4-(((1S,2S)-2-(dimethylamino)cyclohexyl)oxy)-2-fluorobenzenesulfonamide] |
| 310 nM | O=C(NS(=O)(=O)N1CCc2ccccc2C1)c1cc(Cl)c(OCC2CCCC2)cc1F [Example 19, 5-chloro-4-(cyclopentylmethoxy)-N-((3,4-dihydroisoquinolin-2(1H)-yl)sulfonyl)-2-fluorobenzamide] |
| 730 nM | O=C(NS(=O)(=O)c1ccc(OCc2cc(F)cc(F)c2)cc1)c1cc(Cl)c(OCC2CCCC2)cc1F [Example 307, 5-chloro-4-(cyclopentylmethoxy)-N-((4-((3,5-difluorobenzyl)oxy)phenyl)sulfonyl)-2-fluorobenzamide] |
| 20 nM | O=C(NS(=O)(=O)N1CCCCCC1)c1cc(Cl)c(OCC2CCCC2)cc1F [Example 227, N-(azepan-1-ylsulfonyl)-5-chloro-4-(cyclopentylmethoxy)-2-fluorobenzamide] |
| 22 nM | CCc1cc(C(=O)NS(=O)(=O)N2CCC(OC3CN(C)C3)CC2)c(F)cc1OCC1CCCC1 [Example 3, 4-(cyclopentylmethoxy)-5-ethyl-2-fluoro-N-((4-((1-methylazetidin-3-yl)oxy)piperidin-1-yl)sulfonyl) benzamide] |
| 370 nM | COc1ccc2nc(NS(=O)(=O)c3ccc(N[C@H]4CCCC[C@@H]4N(C)C)cc3F)sc2c1 [Example 201, 4-(((1S,2S)-2-(dimethylamino)cyclohexyl)amino)-2-fluoro-N-(6-methoxybenzo[d]thiazol-2-yl)benzenesulfonamide] |
| 1000 nM | CN(C)C1CCN(S(=O)(=O)NC(=O)c2cc(Cl)c(OCC3CCCC3)cc2F)CC1 [Example 329, 5-chloro-4-(cyclopentylmethoxy)-N-((4-(dimethylamino)piperidin-1-yl)sulfonyl)-2-fluorobenzamide] |
| 700 nM | O=C(NS(=O)(=O)c1cc(Cl)ccc1F)c1cc(Cl)c(OCC2CCCC2)cc1F [Example 80, 5-chloro-N-((5-chloro-2-fluorophenyl)sulfonyl)-4-(cyclopentylmethoxy)-2-fluorobenzamide] |
| 420 nM | O=C(NS(=O)(=O)N1CC[C@@H](OC2CCNCC2)C1)c1cc(Cl)c(OCC2CCCC2)cc1F (single isomer, unassigned) [Example 213] |
| 47 nM | Cn1nccc1COc1ccc(S(=O)(=O)NC(=O)c2cc(Cl)c(OCC3CCCC3)cc2F)cc1 [Example 315, 5-chloro-4-(cyclopentylmethoxy)-2-fluoro-N-((4-((1-methyl-1H-pyrazol-5-yl)methoxy)phenyl)sulfonyl)benzamide] |
| 140 nM | Cc1ccc(COc2ccc(S(=O)(=O)NC(=O)c3cc(Cl)c(OCC4CCCC4)cc3F)cc2)cc1 [Example 313, 5-chloro-4-(cyclopentylmethoxy)-2-fluoro-N-((4-((4-methylbenzyl)oxy)phenyl)sulfonyl)benzamide] |
| 690 nM | COc1cccc(S(=O)(=O)NC(=O)c2cc(Cl)c(OCC3CCCC3)cc2F)c1 [Example 245, 5-chloro-4-(cyclopentylmethoxy)-2-fluoro-N-((3-methoxyphenyl)sulfonyl)benzamide] |
| 59 nM | CN1CC(OC2CCN(S(=O)(=O)NC(=O)c3cc(C4CC4)c(OCC4CC4)cc3F)CC2)C1 [Example 9, 5-cyclopropyl-4-(cyclopropylmethoxy)-2-fluoro-N-((4-((1-methylazetidin-3-yl)oxy)piperidin-1-yl)sulfonyl)benzamide] |
| 28 nM | Cn1cncc1COc1ccc(S(=O)(=O)NC(=O)c2cc(Cl)c(OCC3CCCC3)cc2F)cc1 [Example 316, 5-chloro-4-(cyclopentylmethoxy)-2-fluoro-N-((4-((1-methyl-1H-imidazol-5-yl)methoxy)phenyl)sulfonyl)benzamide] |
| 270 nM | O=C(NS(=O)(=O)c1ccc2c(c1)CCC2)c1cc(Cl)c(OCC2CCCC2)cc1F [Example 262, 5-chloro-4-(cyclopentylmethoxy)-N-((2,3-dihydro-1H-inden-5-yl)sulfonyl)-2-fluorobenzamide] |
